System: male spontaneously hypertensive rats
Experiment: Decrease in systolic blood pressure in spontaneously hypertensive rats after intravenous bolus injection, indirect (tail-cuff) method
Assay type: in vivo, rat
Conditions: for Decrease in systolic blood pressure (mmHg) time after administration (hour) 0.5: 0.5 hour after administration; for Decrease in systolic blood pressure (mmHg) time after administration (hour) 4: 4 hours after administration
Experimental: As test animals, four male spontaneously hypertensive rats (weight 400 to 440 g) that were sufficiently adapted for feeding and in which hypertension was confirmed were used.
Physiological saline aqueous solution containing 2.5% Nicolle and 2.5% ethanol of sample was intravenously administered by bolus injection at a dose of 1 ml per 1 kg of body weight. Systolic blood pressure after administration was measured by the indirect (tail-cuff) method.

Compound: CCOc1ccc(C(=O)CCCN2CCC(=C3c4ccccc4C=Cc4ccccc43)CC2)cc1OCC.Cl [Example 194, 4-(4-(5H-Dibenzo[a,d]cyclohepten-5-ylidene)-1-piperidinyl)-3′,4′-diethoxybutyrophenone hydrochloride]
- Decrease in systolic blood pressure (mmHg) time after administration (hour) 0.5 (dose 10 mg/kg i.v. bolus): −59 mmHg
- Decrease in systolic blood pressure (mmHg) time after administration (hour) 4 (dose 10 mg/kg i.v. bolus): −17 mmHg

Compound: C1=Cc2ccccc2C(=C2CCN(CCCc3ccccc3)CC2)c2ccccc21.Cl [Example 14, 3-(4-(5H-Dibenzo[a,d]cyclohepten-5-ylidene)-1-piperidinyl)-1-phenylpropane hydrochloride]
- Decrease in systolic blood pressure (mmHg) time after administration (hour) 0.5 (dose 10 mg/kg i.v. bolus): −105 mmHg
- Decrease in systolic blood pressure (mmHg) time after administration (hour) 4 (dose 10 mg/kg i.v. bolus): −10 mmHg

Compound: Cl.O=[N+]([O-])c1cccc2c1CC(CN1CCC(=C3c4ccccc4C=Cc4ccccc43)CC1)C2 (stereo not shown) [Example 329, 2-(4-(5H-Dibenzo[a,d]cyclohepten-5-ylidene)-1-piperidinyl)methyl-4′-nitroindan hydrochloride]
- Decrease in systolic blood pressure (mmHg) time after administration (hour) 0.5 (dose 10 mg/kg i.v. bolus): −34 mmHg
- Decrease in systolic blood pressure (mmHg) time after administration (hour) 4 (dose 10 mg/kg i.v. bolus): −7 mmHg

Compound: COc1cccc(C=CCN2CCC(=C3c4ccccc4C=Cc4ccccc43)CC2)c1OC.Cl [Example 344, 4-(5H-Dibenzo[a,d]cyclohepten-5-ylidene)-1-(2,3-dimethoxycinnamyl)piperidine hydrochloride]
- Decrease in systolic blood pressure (mmHg) time after administration (hour) 0.5 (dose 1 mg/kg i.v. bolus): −123 mmHg
- Decrease in systolic blood pressure (mmHg) time after administration (hour) 4 (dose 1 mg/kg i.v. bolus): −35 mmHg

Compound: C1=Cc2ccccc2C(=C2CCN(CCCCCc3ccccc3)CC2)c2ccccc21.Cl [Example 16, 5-(4-(5H-Dibenzo[a,d]cyclohepten-5-ylidene)-1-piperidinyl)-1-phenylpentane hydrochloride]
- Decrease in systolic blood pressure (mmHg) time after administration (hour) 0.5 (dose 10 mg/kg i.v. bolus): −114 mmHg
- Decrease in systolic blood pressure (mmHg) time after administration (hour) 4 (dose 10 mg/kg i.v. bolus): −30 mmHg

Compound: Cl.c1ccc2c(c1)CCc1ccccc1C2=C1CCN(CCCCC2CCCCC2)CC1 [Example 186]
- Decrease in systolic blood pressure (mmHg) time after administration (hour) 0.5 (dose 10 mg/kg i.v. bolus): −95 mmHg
- Decrease in systolic blood pressure (mmHg) time after administration (hour) 4 (dose 10 mg/kg i.v. bolus): −12 mmHg

Compound: COc1cccc(C=CCN2CCC(=C3c4ccccc4C=Cc4ccccc43)CC2)c1.Cl [Example 348, 4-(5H-Dibenzo[a,d]cyclohepten-5-ylidene)-1-(3-methoxycinnamyl)piperidine hydrochloride]
- Decrease in systolic blood pressure (mmHg) time after administration (hour) 0.5 (dose 3 mg/kg i.v. bolus): −105 mmHg
- Decrease in systolic blood pressure (mmHg) time after administration (hour) 4 (dose 3 mg/kg i.v. bolus): −12 mmHg

Compound: Cl.O=c1[nH]c2ccccc2c(=O)n1CCN1CCC(=C2c3ccccc3C=Cc3ccccc32)CC1 [Example 28]
- Decrease in systolic blood pressure (mmHg) time after administration (hour) 0.5 (dose 10 mg/kg i.v. bolus): −52 mmHg
- Decrease in systolic blood pressure (mmHg) time after administration (hour) 4 (dose 10 mg/kg i.v. bolus): 4 mmHg

Compound: COC1=C(OC)CC2=CC=CC(CN3CCC(=C4c5ccccc5C=Cc5ccccc54)CC3)=CC2=C1.Cl [Example 319, 6-(4-(5H-Dibenzo[a,d]cyclohepten-5-ylidene)-1-piperidinyl)methyl-2,3-dimethoxybenzocycloheptene hydrochloride]
- Decrease in systolic blood pressure (mmHg) time after administration (hour) 0.5 (dose 10 mg/kg i.v. bolus): −104 mmHg
- Decrease in systolic blood pressure (mmHg) time after administration (hour) 4 (dose 10 mg/kg i.v. bolus): −20 mmHg

Compound: 2,6-Dimethyl-4-(4-(4-(5H-Dibenzo[a,d]cyclohepten-5-ylidene)-1-piperidinyl)-1-butyl)-5-methylpyrydine-3,5-dicarboxylate dihydrochloride [Example 288]
- Decrease in systolic blood pressure (mmHg) time after administration (hour) 0.5 (dose 10 mg/kg i.v. bolus): −92 mmHg
- Decrease in systolic blood pressure (mmHg) time after administration (hour) 4 (dose 10 mg/kg i.v. bolus): −14 mmHg

Compound: CC(CC(=O)c1ccccc1)N1CCC(=C2c3ccccc3C=Cc3ccccc32)CC1.Cl (stereo not shown) [Example 100, 3-(4-(5H-Dibenzo[a,d]cyclohepten-5-ylidene)-1-piperidinyl)butyrophenone hydrochloride]
- Decrease in systolic blood pressure (mmHg) time after administration (hour) 0.5 (dose 10 mg/kg i.v. bolus): −35 mmHg
- Decrease in systolic blood pressure (mmHg) time after administration (hour) 4 (dose 10 mg/kg i.v. bolus): −5 mmHg

Compound: Cl.FC(F)(F)c1cccc(CN2CCC(=C3c4ccccc4C=Cc4ccccc43)CC2)c1 [Example 115, 4-(5H-Dibenzo[a,d]cyclohepten-5-ylidene)-1-(3-trifluoromethylbenzyl)piperidine hydrochloride]
- Decrease in systolic blood pressure (mmHg) time after administration (hour) 0.5 (dose 10 mg/kg i.v. bolus): −53 mmHg
- Decrease in systolic blood pressure (mmHg) time after administration (hour) 4 (dose 10 mg/kg i.v. bolus): −19 mmHg

Compound: 4-(5H-Dibenzo[a,d]cyclohepten-5-ylidene)-1-(4-N-imidazolylmethyl)cinnamyl)piperidine dihydroxybutane hydrochloride [Example 210]
- Decrease in systolic blood pressure (mmHg) time after administration (hour) 0.5 (dose 1 mg/kg i.v. bolus): −78 mmHg
- Decrease in systolic blood pressure (mmHg) time after administration (hour) 4 (dose 1 mg/kg i.v. bolus): −69 mmHg

Compound: Cl.Fc1cccc(CN2CCC(=C3c4ccccc4C=Cc4ccccc43)CC2)c1 [Example 112, 4-(5H-Dibenzo[a,d]cyclohepten-5-ylidene)-1-(3-fluorobenzyl)piperidine hydrochloride]
- Decrease in systolic blood pressure (mmHg) time after administration (hour) 0.5 (dose 10 mg/kg i.v. bolus): −16 mmHg
- Decrease in systolic blood pressure (mmHg) time after administration (hour) 4 (dose 10 mg/kg i.v. bolus): 0 mmHg

Compound: Cl.N#Cc1ccccc1CN1CCC(=C2c3ccccc3C=Cc3ccccc32)CC1 [Example 158, 1-(2-Cyanobenzyl)-4-(5H-dibenzo[a,d]cyclohepten-5-ylidene)piperidine hydrochloride]
- Decrease in systolic blood pressure (mmHg) time after administration (hour) 0.5 (dose 10 mg/kg i.v. bolus): −8 mmHg
- Decrease in systolic blood pressure (mmHg) time after administration (hour) 4 (dose 10 mg/kg i.v. bolus): 7 mmHg

Compound: COCC(=O)Oc1cccc(C=CCN2CCC(=C3c4ccccc4C=Cc4ccccc43)CC2)c1.Cl [Example 369, 4-(5H-Dibenzo[a,d]cyclohepten-5-ylidene)-1-(3-(2-methoxyacetoxy)cinnamyl)piperidine hydrochloride]
- Decrease in systolic blood pressure (mmHg) time after administration (hour) 0.5 (dose 10 mg/kg i.v. bolus): −101 mmHg
- Decrease in systolic blood pressure (mmHg) time after administration (hour) 4 (dose 10 mg/kg i.v. bolus): −83 mmHg

Compound: CC(=O)N(CCCN1CCC(=C2c3ccccc3C=Cc3ccccc32)CC1)C1CCCCC1.Cl [Example 267, N-Acetyl-N-(3-4-(5H-Dibenzo[a,d]cyclohepten-5-ylidene)-1-piperidinyl)-1-propylcyclohexylamine hydrochloride]
- Decrease in systolic blood pressure (mmHg) time after administration (hour) 0.5 (dose 10 mg/kg i.v. bolus): −40 mmHg
- Decrease in systolic blood pressure (mmHg) time after administration (hour) 4 (dose 10 mg/kg i.v. bolus): 0 mmHg

Compound: Cl.Fc1ccccc1CN1CCC(=C2c3ccccc3C=Cc3ccccc32)CC1 [Example 111, 4-(5H-Dibenzo[a,d]cyclohepten-5-ylidene)-1-(2-fluorobenzyl)piperidine hydrochloride]
- Decrease in systolic blood pressure (mmHg) time after administration (hour) 0.5 (dose 10 mg/kg i.v. bolus): −98 mmHg
- Decrease in systolic blood pressure (mmHg) time after administration (hour) 4 (dose 10 mg/kg i.v. bolus): −13 mmHg

Compound: Cl.OC(CCCN1CCC(=C2c3ccccc3C=Cc3ccccc32)CC1)c1ccc(F)cc1 (stereo not shown) [Example 108, 4-(4-(5H-Dibenzo[a,d]cyclohepten-5-ylidene)-1-piperidinyl)-1-hydroxy-1-(4-fluorophenyl)butane hydrochloride]
- Decrease in systolic blood pressure (mmHg) time after administration (hour) 0.5 (dose 10 mg/kg i.v. bolus): −126 mmHg
- Decrease in systolic blood pressure (mmHg) time after administration (hour) 4 (dose 10 mg/kg i.v. bolus): −50 mmHg

Compound: Cl.O=C1CCCC(CCCCN2CCC(=C3c4ccccc4C=Cc4ccccc43)CC2)C1 (stereo not shown) [Example 301, 3-(4-(4-(5H-Dibenzo[a,d]cyclohepten-5-ylidene)-1-piperidinyl)-1-butyl)cyclohexanoe hydrochloride]
- Decrease in systolic blood pressure (mmHg) time after administration (hour) 0.5 (dose 10 mg/kg i.v. bolus): −100 mmHg
- Decrease in systolic blood pressure (mmHg) time after administration (hour) 4 (dose 10 mg/kg i.v. bolus): −12 mmHg

Compound: Cl.Nc1ccc(C=CCN2CCC(=C3c4ccccc4C=Cc4ccccc43)CC2)cc1 [Example 231, 1-(4-Aminocinnamyl)-4-(5H-dibenzo[a,d]cyclohepten-5-ylidene)piperidine hydrochloride]
- Decrease in systolic blood pressure (mmHg) time after administration (hour) 0.5 (dose 3 mg/kg i.v. bolus): −132 mmHg
- Decrease in systolic blood pressure (mmHg) time after administration (hour) 4 (dose 3 mg/kg i.v. bolus): −115 mmHg

Compound: COCC(=O)Oc1ccc(C=CCN2CCC(=C3c4ccccc4C=Cc4ccccc43)CC2)cc1.Cl [Example 383, 4-(5H-Dibenzo[a,d]cyclohepten-5-ylidene)-1-(4-(2-methoxyacetoxy)cinnamyl)piperidine hydrochloride]
- Decrease in systolic blood pressure (mmHg) time after administration (hour) 0.5 (dose 3 mg/kg i.v. bolus): −112 mmHg
- Decrease in systolic blood pressure (mmHg) time after administration (hour) 4 (dose 3 mg/kg i.v. bolus): −86 mmHg

Compound: Cl.OC1CCC(CCCCN2CCC(=C3c4ccccc4C=Cc4ccccc43)CC2)CC1 (stereo not shown) [Example 296, 1-(1-(4-Hydroxy)cyclohexyl)-4-(4-(5H-dibenzo[a,d]cyclohepten-5-ylidene)-1-piperidinyl)butane hydrochloride]
- Decrease in systolic blood pressure (mmHg) time after administration (hour) 0.5 (dose 10 mg/kg i.v. bolus): −109 mmHg
- Decrease in systolic blood pressure (mmHg) time after administration (hour) 4 (dose 10 mg/kg i.v. bolus): −14 mmHg

Compound: CC(=O)Oc1ccc(C=CCN2CCC(=C3c4ccccc4C=Cc4ccccc43)CC2)cc1.Cl [Example 364, 1-(4-Acetoxycinnamyl)-4-(5H-Dibenzo[a,d]cyclohepten-5-ylidene)piperidine hydrochloride]
- Decrease in systolic blood pressure (mmHg) time after administration (hour) 0.5 (dose 1 mg/kg i.v. bolus): −113 mmHg

Compound: COC1CCCC(CCCCN2CCC(=C3c4ccccc4C=Cc4ccccc43)CC2)C1.Cl (stereo not shown) [Example 299, 1-(1-(3-Methoxy)cyclohexyl)-4-(4-(5H-dibenzo[a,d]cyclohepten-5-ylidene)-1-piperidinyl)butane hydrochloride]
- Decrease in systolic blood pressure (mmHg) time after administration (hour) 0.5 (dose 10 mg/kg i.v. bolus): −134 mmHg
- Decrease in systolic blood pressure (mmHg) time after administration (hour) 4 (dose 10 mg/kg i.v. bolus): −45 mmHg

Reference: patent USRE38257E1, “Piperdine derivatives and hypotensives containing the same” (Ajinomoto Co., Inc., priority 1988, dated 2003)
